Structure (SMILES) | logP
O=C(O)CCCCCON=C(c1ccccc1)c1cnccn1 | 0.23
O=C(O)CCCCO/N=C(/c1ccccc1)c1ccnnc1 | -0.33
O=C(O)CCCCCO/N=C(/c1ccccc1)c1ccnnc1 | 0.1
O=C(O)CCCO/N=C(\c1ccccc1)c1ccnnc1 | -0.4
O=C(O)CCCCO/N=C(/c1ccccc1)c1cnccn1 | -0.23

The remaining lines, values ahead:

logP | Structure (SMILES)
0 | O=C(O)CCCCO/N=C(/c1ccccc1)c1cccnn1
-0.01 | O=C(O)CCCCCO/N=C(/c1ccccc1)c1cccnn1
-0.53 | O=C(O)CCCO/N=C(/c1ccccc1)c1cnccn1
-0.27 | O=C(O)CCCO/N=C(/c1ccccc1)c1cccnn1

From the SangsterLogP compilation
